The test deals with T1, hTAS1R1 A302W/rTAS1R3 (UniProt Q7RTX1+Q923K1, A302W).
T1 construct: UniProtKB number Q7RTX1–1); The cDNA coding region of rTAS1R3 was synthesized with optimized-codon usage for human expression; expressed in transfected cells; host or cells: HEK293T/17
T1 sequence (Q7RTX1 21-841 A302W): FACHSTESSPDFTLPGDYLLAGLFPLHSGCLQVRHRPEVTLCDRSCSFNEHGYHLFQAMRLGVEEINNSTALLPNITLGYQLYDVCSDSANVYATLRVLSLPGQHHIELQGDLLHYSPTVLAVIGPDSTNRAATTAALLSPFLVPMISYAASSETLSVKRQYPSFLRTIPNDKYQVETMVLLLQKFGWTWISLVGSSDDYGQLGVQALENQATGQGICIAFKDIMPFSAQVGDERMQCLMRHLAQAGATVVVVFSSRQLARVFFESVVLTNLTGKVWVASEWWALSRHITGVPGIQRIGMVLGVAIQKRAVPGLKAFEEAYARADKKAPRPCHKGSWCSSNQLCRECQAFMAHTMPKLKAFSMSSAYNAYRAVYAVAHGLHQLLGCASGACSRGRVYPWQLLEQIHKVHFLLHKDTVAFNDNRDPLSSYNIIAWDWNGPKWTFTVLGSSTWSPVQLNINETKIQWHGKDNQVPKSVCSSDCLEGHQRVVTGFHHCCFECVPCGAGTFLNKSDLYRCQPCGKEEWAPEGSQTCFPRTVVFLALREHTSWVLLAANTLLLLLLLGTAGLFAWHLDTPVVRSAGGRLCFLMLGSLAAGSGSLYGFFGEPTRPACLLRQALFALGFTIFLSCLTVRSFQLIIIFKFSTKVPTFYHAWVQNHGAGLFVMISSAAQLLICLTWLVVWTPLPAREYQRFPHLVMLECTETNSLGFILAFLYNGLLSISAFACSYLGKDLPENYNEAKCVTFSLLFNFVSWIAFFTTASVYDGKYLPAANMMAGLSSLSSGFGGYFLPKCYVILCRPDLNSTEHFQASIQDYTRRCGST
T1 sequence (Q923K1 21-858): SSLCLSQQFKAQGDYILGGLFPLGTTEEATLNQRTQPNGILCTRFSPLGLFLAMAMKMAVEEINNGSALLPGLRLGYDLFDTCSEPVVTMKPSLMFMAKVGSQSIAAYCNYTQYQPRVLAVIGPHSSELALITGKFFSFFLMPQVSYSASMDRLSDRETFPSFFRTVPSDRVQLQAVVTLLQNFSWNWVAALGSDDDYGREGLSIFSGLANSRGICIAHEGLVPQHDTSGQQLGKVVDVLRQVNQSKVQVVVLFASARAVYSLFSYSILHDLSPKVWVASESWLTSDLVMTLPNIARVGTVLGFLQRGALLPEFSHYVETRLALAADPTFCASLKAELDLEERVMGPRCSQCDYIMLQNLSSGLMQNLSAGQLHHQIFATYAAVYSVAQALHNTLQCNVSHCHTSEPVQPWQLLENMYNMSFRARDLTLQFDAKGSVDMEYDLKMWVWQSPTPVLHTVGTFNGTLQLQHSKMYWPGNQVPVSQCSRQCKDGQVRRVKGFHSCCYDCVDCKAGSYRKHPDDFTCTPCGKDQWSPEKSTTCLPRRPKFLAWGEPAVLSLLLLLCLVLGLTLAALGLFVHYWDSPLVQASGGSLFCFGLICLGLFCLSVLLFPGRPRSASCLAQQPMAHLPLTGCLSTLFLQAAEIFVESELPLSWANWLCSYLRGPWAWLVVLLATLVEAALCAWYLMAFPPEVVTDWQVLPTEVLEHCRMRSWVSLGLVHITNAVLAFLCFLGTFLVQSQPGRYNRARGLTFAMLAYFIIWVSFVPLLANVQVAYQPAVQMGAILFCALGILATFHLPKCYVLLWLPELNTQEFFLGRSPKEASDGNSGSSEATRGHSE
The experiment in a line: Calcium assay, hTAS1R1 mutant co-expressed with rTAS1R3. Format: cell-based, human, rat. The source says:
Chimeric Gα proteins, such as Gα16Gust44, Gα16Gi3 or Gα15i2, are widely used in the functional expression of TAS1R receptors ([Backes et al., 2015]; [Suess et al., 2015]; [Toda et al., 2021], [Toda et al., 2013], [Toda et al., 2018]; [Zhang et al., 2008]). Chimeric Gα15i2 (([Toda et al., 2013]), Supplementary data) was generated by replacing the last five residues of the C-terminal tail of rat Gα15i2 (EINLL) (UniProt number G3V6N8; https://www.uniprot.org/uniprot/) with the counterpart sequence from human GNAI2 (DCGLF) (UniProt number P04899-1) and cloning into the pcDNA3.1/Hygro vector (Invitrogen, Thermo Fisher Scientific, Illkirch, France) between the HindIII and NotI restriction sites, resulting in the plasmid pcDNA3.1-Gα15i2. Chimeric Gα16Gust44 construct have already been reported ([Raliou et al., 2011]). Briefly, Gα16Gust44 was generated by replacing the C-terminal of Gα16 with the C-terminal 44 residues of gustducin. As previously described, hTAS1R1 was amplified from human fungiform papillae cDNA and cloned and inserted into pcDNA3 (Invitrogen), generating pcDNA3-TAS1R1-WT (wild-type) ([Raliou et al., 2011]). […] The cDNA coding region of rTAS1R3 was synthesized with optimized-codon usage for human expression (Genewiz) and was cloned and inserted into the mammalian pcDNA4/myc-HisA (Invitrogen) expression vector between the EcoRI and NotI restriction sites, resulting in the plasmid pcDNA4-rTAS1R3. […] The sequence integrity of all the plasmid constructs was verified via automated DNA sequencing (Genewiz).
The hTAS1R1 mutants were co-expressed with the rTAS1R3 subunit in HEK293 cells. […] As a control, the functionality of the mutated receptors was checked after stimulation with S807 (Fig. S8), which interacts with TAS1R1-TMD ([Zhang et al., 2008]).

One may read the EC50 as the midpoint of the concentration-response curve.

For the compound `N[C@@H](CCC(=O)N[C@@H](CS)C(=O)NCC(=O)O)C(=O)O` [GSH, γ-L-glutamyl-L-cysteinyl-glycine], the EC50 was determined as 5.32 ± 2.54 mM. Also, for the setting “A302W, GSH”, the “Max ∆F/F0” value is on record as 0.09 ± 0.01 and the “R1 = mutant EC50/WT EC50” value came out at 2.1.
As to `N[C@@H](CCC(=O)O)C(=O)O` [L-Glu, L-glutamic acid, reference compound], the “response to the agonist alone, vs WT” value (A302W) is recorded as “completely suppressed”.
As to `CCCC(CCC)NC(=O)c1ccc2c(c1)OCO2` [S807, N-(heptan-4-yl)benzo[d][1,3]dioxole-5-carboxamide, reference compound], the “response to the agonist alone, vs WT” value (A302W) is “strongly affected”.
